The values below come from publication PMC5339874, “Fluorene-9-bisphenol is anti-oestrogenic and may cause adverse pregnancy outcomes in mice” (Nature Communications, 2017).

Like-named read-outs stand apart in the source and are kept apart here.

The test concerns the target T1, human oestrogen receptor α (Homo sapiens, UniProt P03372).
T1 construct: expressed in transfected cells; host or cells: JEG-3 human choriocarcinoma cells
T1 sequence (P03372 1-595): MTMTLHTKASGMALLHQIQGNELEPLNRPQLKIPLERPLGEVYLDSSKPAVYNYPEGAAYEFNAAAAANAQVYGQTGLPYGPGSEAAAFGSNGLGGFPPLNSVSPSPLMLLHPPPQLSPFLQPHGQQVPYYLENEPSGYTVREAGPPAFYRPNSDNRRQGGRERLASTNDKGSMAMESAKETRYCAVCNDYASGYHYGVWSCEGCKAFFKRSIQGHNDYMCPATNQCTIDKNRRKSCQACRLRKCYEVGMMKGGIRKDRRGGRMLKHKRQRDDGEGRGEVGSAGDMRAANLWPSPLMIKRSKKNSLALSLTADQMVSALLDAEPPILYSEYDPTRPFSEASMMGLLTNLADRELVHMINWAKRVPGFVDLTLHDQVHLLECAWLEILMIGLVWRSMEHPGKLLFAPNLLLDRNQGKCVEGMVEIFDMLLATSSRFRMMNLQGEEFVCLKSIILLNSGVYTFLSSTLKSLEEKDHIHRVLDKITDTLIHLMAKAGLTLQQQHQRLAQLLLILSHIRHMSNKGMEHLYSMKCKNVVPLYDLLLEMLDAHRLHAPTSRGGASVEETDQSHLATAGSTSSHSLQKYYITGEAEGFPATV
Nature of the test: Dual-luciferase reporter assay, full-length ERα and ERE in JEG-3 cells. It counts as cell-based. Here is the method:
Dual-luciferase reporter assays were carried out primarily according to the method described in a previous study. In short, full-length sequences of human oestrogen receptor α and β were amplified by RT-PCR using mRNA from MCF-7 (Supplementary Table 3), and inserted into a pSVSPORT1 (Invitrogen); the resulting constructs were termed pSVhERα and pSVhERβ. A reporter plasmid containing ERE was constructed by inserting four tandem repeats of an ERE of Xenopus laevis vitellogenin A2 into a pGL4.23 vector (Promega), and was termed pGL4-ERE-luc. […] The Renilla LUC control reporter construct pGL4.74-TK was purchased from Promega (Madison, WI). […] The assays were performed in quadruplicate, and the results were expressed as the fold induction of the control after normalization against Renilla luciferase activity. Sigmoidal dose-effect curves were calculated using the GraphPad Prism 4 software. The IC50 values were calculated on the basis of the sigmoidal dose-effect curves. […]

Consider `Oc1ccc(C2(c3ccc(O)cc3)c3ccccc3-c3ccccc32)cc1` [BHPF, 9,9-bis(4-hydroxyphenyl)-fluorene], for which the IC50 runs as follows: (coexisted with 1 × 10^−9 M E2, read-out: IC50, anti-oestrogenic activity) 109 nM; (vs 1 nM E2, read-out: IC50 converted to mass concentration (converted)) 109 nM.
